Experimental data taken from US12419893B2, “Methods and compositions for maximizing the prevention and/or reduction of various maladies and drug side-effects using uridine” (Tosk, Inc., priority 2018, dated 2025).

What was measured:
female CD-1 mice = assay: Protection from 5-FU induced weight loss, study I (FIG. 2); type: in vivo; details: n=6
Procedure: The aim of this study was to explore whether uridine combined with a uridine phosphorylase inhibitor provided better protection from weight loss produced by 5-FU compared to uridine alone. Weight loss is one of the cardinal features of mucositis.
Four groups of female CD-1 mice were treated with daily ip injections of either PBS vehicle (Group 1), 80 mg/kg, 5-FU qdx5 (Groups 2), or 80 mg/kg, 5-FU qdx5 combined with 750 mg/kg uridine, bid, or 80 mg/kg, 5-FU qdx5 combined with 750 mg/kg uridine and 120 mg/kg bid TK-90, a representative 2,2′-anhydropyrimidine test article, sandwiched before and after the uridine doses. Controls include PBS alone at times mimicking the time for 5-FU and combined uridine and TK-90 treatments. There was n=6 animals in all groups.
Animals were sacrificed on Day 5 by cervical dislocation and properly disposed. Animal weights were recorded daily for 5 days and the % difference between Day 0 and Day 5 at termination calculated.
Results from the study are provided as percent weight gain/loss from pre-dose weight on Day 0 in FIG. 2. […] The statistical difference between Groups 2 and 3 was much less robust (p=0.036).

[1] = cited from earlier work
C57BL/6 female mice = assay: Protection from decrease in plasma citrulline caused by 5-FU (FIG. 4); type: in vivo
Procedure: The chemotherapeutic challenge, 5-FU, was diminished plasma citrulline. […] Citrulline is a well-accepted surrogate marker for mucositis.
FIG. 4 depicts citrulline concentrations measured in plasma obtained at sacrifice on Day 3 from C57BL/6 female mice, approximately 20 g, treated on Day 0 with 200 mg/kg 5-FU, ip. On Days 0-2, the uridine and uridine+TK-90 group animals were dosed with […], bid. On Days 0-2, the uridine+TK-90 group animals were treated with 700 mg/kg TK-90, bid, in addition to the 5-FU on Day 0 and the uridine on Days 0-2. Animals in the PBS group were treated on Day 0-2 with PBS, bid. Data from all six mice in the PBS, uridine and uridine plus TK-90 groups were considered. Data from only five animals in the 5-FU group were considered because results from one animal was considered an outlier (unusually low response from the injected 5-FU). Plasma citrulline is a marker for mucosal health. […]
Thawed plasma samples from the study were analyzed for citrulline using a published LC/MS/MS-Isotope assay. (Jones et al., “Development and validation of a LC-MS/MS assay for quantitation of plasma citrulline for application to animal models of the acute radiation syndrome across multiple species,” Anal Bioanal Chem. (2014) 406 (19): 4663-75.).

[2] = man and animals (Deng et al. 2017); cited from earlier work

weight loss compared to the PBS vehicle control (percent weight change Day 5 vs Day 0) (female CD-1 mice; 80 mg/kg 5-FU qdx5 ip)	plasma citrulline compared to the PBS vehicle control (C57BL/6 female mice; 200 mg/kg 5-FU ip Day 0, plasma at Day 3, n=5)	Structure (SMILES)	protection from 5-FU induced weight loss compared to the 5-FU group alone (female CD-1 mice; Day 5 vs Day 0, 5-FU 80 mg/kg qdx5, uridine 750 mg/kg bid, TK-90 120 mg/kg bid, ip)	toxicities of continuous infusions of high-dose uridine ([1]; continuous infusion)	toxicity of high-dose oral uridine in clinical studies ([1]; oral, patients)	protection from 5-FU lowered plasma citrulline (C57BL/6 female mice; 5-FU 200 mg/kg ip Day 0, uridine 250 mg bid Days 0-2, TK-90 700 mg/kg bid Days 0-2, plasma Day 3, n=6)	half-life of administered uridine [2]
		O=c1ccn([C@@H]2O[C@H](CO)[C@@H](O)[C@H]2O)c(=O)[nH]1 [uridine]	statistically significant but much less	high fever, cellulitis, and superior vena cava syndrome	severe patient diarrhea, phlebitis, and pyrogenic reactions	provided protection	~3 min
robust weight loss	significant reduction in citrulline	O=c1[nH]cc(F)c(=O)[nH]1 [Compound 5-FU, 5-fluoro-2,4 (1H,3H)-Pyrimidinedione]					
